Laboratory results from patent publication US20260207788A1, “HEAVY ISOTOPE 3-BP MOLECULES, COMPOSITIONS, AND TREATMENTS” (KODISCOVERY, LLC, priority 2022, published 2026).
Read-outs that look alike come from different tables or passages of the source.

Legend:
Type in all cases: cell-based
[1] = tested on: Panc-2 cells; assay: MTS assay, percent viability of Panc-2 cells; conditions: for viability at 40 µM / viability at 80 µM / viability at 100 µM: read-out: percent viability of Panc-2 cells; for cell death: time not given
Protocol: (§1) In current study we have tested anti-tumor potency of 7, 3-BP analogues employing MTS and ATP assay. The percent viability of Pan-2 cells was determined in presence of graded concentration of 3BP analogues 0, 1, 2, 3, 4, 5, 6 & 7.
Panc2 cells were seeded in either 6 well plate (6-6.5×10^4 cells/well/2 ml media) or in 12 well plate (3-3.5×10^4/1 ml media) or in 96 well plate ([…] /well/100 ul) in RPMI 1640 with 10% FBS, 0.5% antibiotic media for about 12 hours, in CO2 cell culture incubator at 37 °C. The cells were treated initially with KAT 0, 5, 20, 40, 80 and 100 uM for 1, 2, 4, 8 hours and latter in separate experiments with 40 and 60 µM for 15, 30, 1 hour. For each treatment KAT was added in a volume maximum 10 ul. For control same amount of KAT buffer was used. At the end of each time point treatment MTS reagent (Cell titer 96 aqueous one solution, Promega, USA) was added to each well according to the manufacturer instruction and incubated for approx. 2 hours. After that 100 ul from each well was transferred to 96 well plate (quartiles for each treatment) and measured absorbance at 490 nm with BIOTEK synergy HT. For 96 well plate reagent was added directly to each well, incubated for 2 hours and measured absorbance at 490 nm.

[2] = tested on: Panc-2 cells; assay: ATP assay (cell titer Glo2.0), ATP generation in panc-2 cells; conditions: 40 μM; for cells killed in terms of ATP generation: time not given
Protocol: as §1
For ATP assay panc2 cells (2×10^3/in 100 ul media) were seeded in each well of 96 well luminescence plate (Corning, USA) for 12 hours in media described above. Cells were treated with KAT 0, 5, 20, 40, 80, 100 for 1, 2, 4, 8 hours. In separate experiments, cells were treated with KAT 40, 60 μM for 15, 30 & 60 min. At the end of each treatment, 100 ul ATP assay reagent cell titer Glo2.0 (Promega, USA) was added in each well, shacked on a rotating shaker for 2 mins, incubated at room temperature for 10 mins in dark and luminescence was measured with BIOTEK synergy HT.

[3] = tested on: Panc-2 cells; assay: Imaging of morphology of treated panc-2 cells
[4] = tested on: Panc-2 cells; assay: MTS assay, percent viability of Panc-2 cells; conditions: 40 μM; for cells killed in terms of MTT: time not given; for cell death (cells killed) in terms of MTT: after 8 hours

Row | SMILES | viability at 40 µM ([1]; 1 h) [%] | viability at 40 µM ([1]; 8 h) [%] | ATP generation ([2]; 1 hour treatment) | ATP generation ([2]; after 8 hours) | cells killed in terms of ATP generation [2] | cell morphology ([3]; 40 μM, after 8 hours) | cells killed in terms of MTT [4] | cells killed ([1]; 80 μM, 1 hour treatment) | cell death (cells killed) in terms of ATP generation ([2]; after 8 hours) | cell death (cells killed) in terms of MTT [4] | other results
1 | OC(=[18O])C(=[18O])CBr [Molecule 5] | ~48 | ~19 | about 69% | about 26% | about 74% | rounding and membrane blabbing | about 81% |  |  |  | viability at 80 µM ([1]; 1 h): ~6%; viability at 100 µM [1]: ~2%
2 | O=C(O)C(=O)CBr [Molecule 0, 3-Bromopyruvate, reference compound] |  |  | 80% | 35% |  |  |  | about 97% |  |  | cell death in Panc-2 cells ([1]; 40 μM, 1 hour treatment): 58%; percent viability of Panc-2 cells ([1]; 40 μM, 8 hours treatment): 24%; cell death (cells killed) ([1]; 80 μM, 8 hours treatment): 100%; cell morphology ([3]; 40, 80 and 100 μM): change in morphology
3 | [2H]C([2H])(Br)C(=O)C(=O)O [Molecule 4] | ~58 | ~60 | 91% | about 76% | 32-40% |  | 32-40% | about 99% |  |  | cell death ([1]; 100 μM): about 100%; cell morphology ([3]; 80 μM, after 2 hours): rounding and membrane blabbing
4 | O=C(O)[13C](=O)CBr [Molecule 2] | ~52 | ~60 | 83% | 68% | 32% |  | 40% |  |  |  | cells killed ([1]; 80 μM, 4 hour treatment): about 99%; viability at 100 µM [1]: ~0%; cell morphology ([3]; 80 μM, time not given): rounding and membrane blabbing
5 | O=C(O)C(=O)[13CH2]Br [Molecule 3] | ~62 | ~46 | about 80% | about 66% | about 34% | rounding and membrane blabbing | about 54% | ~88% |  |  | viability at 100 µM ([1]; 1 h): ~5%
6 | O=C(O)C(=O)CBr [Molecule 7, 3-Bromopyruvate, reference compound] |  |  | 79% | 64% |  | rounding and membrane blabbing |  |  | about 74% | about 43% | percent viability of Panc-2 cells ([1]; 40 μM, 1 hour treatment): about 67%; percent viability of Panc-2 cells ([1]; 40 μM, 8 hours treatment): about 46%; percent viability of Panc-2 cells ([1]; 80 μM, 1 hour treatment): about 10%; percent viability of Panc-2 cells ([1]; 100 μM, 1 hour treatment): about 4%
7 | O=C(CBr)[13C](=O)O [Molecule 1] | 54 | 30 | 57% | 7% |  | rounding and membrane blabbing |  | 79% | 93% | 70% | cell death (cells killed) ([1]; 80 μM, 8 hours treatment): 96%; cell death ([1]; 80 and 100 uM): 95-97%
8 | O=[13C](O)[13C](=O)[13CH2]Br [Molecule 6] | ~66 | ~57 | 73% | 26% |  | rounding and membrane blabbing |  |  | about 74% | about 43% | viability at 80 µM ([1]; 1 h): ~32%; viability at 100 µM ([1]; 1 h): ~28%
